Literature values in publication PMC1976805, “Preclinical pharmacokinetics of benznidazole” (British Journal of Cancer, 1984).
Like-named read-outs stand apart in the source and are kept apart here.

Key:
[1] = humans; ref Workman, 1980b and 1983; cited from earlier work
[2] = mice; ref Workman, 1980b and 1983; cited from earlier work
[3] = large crossbred dogs; ref Workman, 1980b and 1983; cited from earlier work
[4] = sheep; ref Miller, personal communication; cited from earlier work
[5] = EMT6 flank tumours; ref Workman, 1980b and 1983; cited from earlier work
[6] = mice; ref Workman, 1980b and 1983; cited from earlier work; remark: listed apart in the source
[7] = spontaneous dog neoplasms; ref Workman, 1980b and 1983; cited from earlier work
[8] = ref Workman, 1980b and 1983, cited from earlier work
plasma proteins = conditions: ref Workman, 1980b and 1983; cited from earlier work

COCC(O)Cn1ccnc1[N+](=O)[O-] (centres unmarked) [MISO, 1-(2-nitro-imidazol-1-yl)-3-methoxypropan-2-ol]
usual average t1/2 [1]: 10 to 12 h | elimination t1/2 [2]: 0.333 to 0.667 h | elimination t1/2 [3]: 4 to 5 h | elimination t1/2 [4]: 0.667 to 1 h | overall tissue/whole plasma ratio [5]: 87% | steady-state tumour/whole plasma ratio (about) [5]: about 90% | brain/whole plasma ratio [6]: 90% | tissue/whole plasma ratio [7]: 61% | peripheral nerve/whole plasma ratio ([8]; dog): 82% | brain/whole plasma ratio ([8]; dogs): 70% | appreciable plasma protein binding (plasma proteins): does not occur
